# Measurements as given in patent US20050245399A1, “Pyrazole derivatives as herbicidal compositions containing them” (ISHIHARA SANGYO KAISHA, LTD., priority 2004, published 2005).
# System: soybean (Glycine max Merr.): GLXMA
# Assay: Test Example 1 pre-emergence herbicidal activity, GLXMA
# Assay type: in vivo
# Details: Rate 63 g a.i./ha, visually observed 20th to 23rd day after application
# How it was run: (§1)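 Pots of upland soil were sown, and one day later WP or EC formulations at set active-ingredient rates were sprayed pre-emergence in 500 L/ha water. Growth control scored visually 20–23 days after application, 0 (as untreated) to 100 (complete kill).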
row,SMILES,Pre-emergence Herbicidal Activity GLXMA (growth controlling degree)
1,COc1c(Cl)cc(F)c(-c2nn(C)c(OC(F)F)c2Cl)c1NC(=O)c1ccc(F)cc1F [Compound 1-30],10%

# System: redroot pigweed (Amaranthus retroflexus L.): AMARE
# Assay: Test Example 1 pre-emergence herbicidal activity, AMARE
# Assay type: in vivo
# Details: Rate 63 g a.i./ha, visually observed 20th to 23rd day after application
# How it was run: as §1
row,SMILES,Pre-emergence Herbicidal Activity AMARE (growth controlling degree)
1,COc1c(Cl)cc(F)c(-c2nn(C)c(OC(F)F)c2Cl)c1NC(=O)c1ccc(F)cc1F [Compound 1-30],100%

# System: prickly sida (Sida spinosa L.), SIDSP
# Assay: Test Example 2 post-emergence (foliage treatment) herbicidal activity, SIDSP
# Assay type: in vivo
# Details: 63 g a.i./ha
# How it was run: (§2)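 Each species was evaluated for growth suppression by eye, 0% matching untreated and 100% meaning death, some 20 to 23 days after a single post-emergence foliar treatment applied in 500 L/ha of water carrying 0.1% (v/v) agricultural spreader.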
row,SMILES,"growth controlling degree, SIDSP"
1,COc1c(Cl)cc(F)c(-c2nn(C)c(OC(F)F)c2Cl)c1NC(=O)c1ccc(F)cc1F [Compound 1-30],100%

# System: barnyardgrass (Echinochiloa oryzicola: ECHOR)
# Assay: Test Example 3 water application herbicidal activity (paddy), ECHOR
# Assay type: in vivo
# Details: 63 g a.i./ha, water application under submerged condition at 0.5 leaf stage, visually observed 14th day after application; 0 = untreated control, 100 = complete kill
# How it was run: (§3)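 Compound, as diluted wettable powder or emulsifiable concentrate, was pipetted into flood water at a set active-ingredient dose. Weeds were treated at 0.5-leaf stage after sowing or tuber planting; 2-leaf rice 4 days post-transplant. Control scored visually, 0 untreated to 100 complete kill, weeds day 14, rice day 21.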
row,SMILES,growth controlling degrees (%) ECHOR
1,COc1c(Cl)cc(F)c(-c2nn(C)c(OC(F)F)c2Cl)c1NC(=O)c1ccc(F)cc1F [Compound 1-30],100%

# System: rice (Oryza sativa L.), ORYSA
# Assay: Test Example 2 post-emergence (foliage treatment) herbicidal activity, ORYSA
# Assay type: in vivo
# Details: 63 g a.i./ha
# How it was run: (§4)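 Plants grown in upland soil pots were sprayed on foliage at set leaf stages (ECHCG 1.1-2.1, DIGSA 1.0-2.0, AMARE 0.1-1.5, ORYSA 1.0-2). Formulated compound was applied at predetermined active-ingredient amounts in 500 L/ha water with 0.1% (v/v) spreader. Growth control (0–100%) was visually scored 20–23 days later.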
row,SMILES,"growth controlling degree, ORYSA"
1,COc1c(Cl)cc(F)c(-c2nn(C)c(OC(F)F)c2Cl)c1NC(=O)c1ccc(F)cc1F [Compound 1-30],90%

# System: velvetleaf (Abutilon theophrasti): ABUTH
# Assay: Test Example 1 pre-emergence herbicidal activity, ABUTH
# Assay type: in vivo
# Details: Rate 63 g a.i./ha, visually observed 20th to 23rd day after application
# How it was run: as §1
row,SMILES,Pre-emergence Herbicidal Activity ABUTH (growth controlling degree)
1,COc1c(Cl)cc(F)c(-c2nn(C)c(OC(F)F)c2Cl)c1NC(=O)c1ccc(F)cc1F [Compound 1-30],100%

# System: japanese bulrush (Scirpus juncoides: SCPJO)
# Assay: Test Example 3 water application herbicidal activity (paddy), SCPJO
# Assay type: in vivo
# Details: 63 g a.i./ha, water application under submerged condition at 0.5 leaf stage, visually observed 14th day after application; 0 = untreated control, 100 = complete kill
# How it was run: as §3
row,SMILES,growth controlling degrees (%) SCPJO
1,COc1c(Cl)cc(F)c(-c2nn(C)c(OC(F)F)c2Cl)c1NC(=O)c1ccc(F)cc1F [Compound 1-30],98%

# System: crabgrass (Digitaria sanguinalis L.): DIGSA
# Assay: Test Example 1 pre-emergence herbicidal activity, DIGSA
# Assay type: in vivo
# Details: Rate 63 g a.i./ha, visually observed 20th to 23rd day after application
# How it was run: as §1
row,SMILES,Pre-emergence Herbicidal Activity DIGSP (growth controlling degree)
1,COc1c(Cl)cc(F)c(-c2nn(C)c(OC(F)F)c2Cl)c1NC(=O)c1ccc(F)cc1F [Compound 1-30],100%

# System: velvetleaf (Abutilon theophrasti), ABUTH
# Assay: Test Example 2 post-emergence (foliage treatment) herbicidal activity, ABUTH
# Assay type: in vivo
# Details: 63 g a.i./ha
# How it was run: as §2
row,SMILES,"growth controlling degree, ABUTH"
1,COc1c(Cl)cc(F)c(-c2nn(C)c(OC(F)F)c2Cl)c1NC(=O)c1ccc(F)cc1F [Compound 1-30],100%

# System: corn (Zea mays L.), ZEAMX
# Assay: Test Example 2 post-emergence (foliage treatment) herbicidal activity, ZEAMX
# Assay type: in vivo
# Details: 63 g a.i./ha
# How it was run: as §2
row,SMILES,"growth controlling degree, ZEAMX"
1,COc1c(Cl)cc(F)c(-c2nn(C)c(OC(F)F)c2Cl)c1NC(=O)c1ccc(F)cc1F [Compound 1-30],60%

# System: wheat (Triticum aestivum L.): TRZAX
# Assay: Test Example 1 pre-emergence herbicidal activity, TRZAX
# Assay type: in vivo
# Details: Rate 63 g a.i./ha, visually observed 20th to 23rd day after application
# How it was run: as §1
row,SMILES,Pre-emergence Herbicidal Activity TRZAX (growth controlling degree)
1,COc1c(Cl)cc(F)c(-c2nn(C)c(OC(F)F)c2Cl)c1NC(=O)c1ccc(F)cc1F [Compound 1-30],0%

# System: green foxtail (Setaria viridis L.): SETVI
# Assay: Test Example 1 pre-emergence herbicidal activity, SETVI
# Assay type: in vivo
# Details: Rate 63 g a.i./ha, visually observed 20th to 23rd day after application
# How it was run: as §1
row,SMILES,Pre-emergence Herbicidal Activity SETVI (growth controlling degree)
1,COc1c(Cl)cc(F)c(-c2nn(C)c(OC(F)F)c2Cl)c1NC(=O)c1ccc(F)cc1F [Compound 1-30],100%

# System: barnyardgrass (Echinochloa crus-galli L.): ECHCG
# Assay: Test Example 1 pre-emergence herbicidal activity, ECHCG
# Assay type: in vivo
# Details: Rate 63 g a.i./ha, visually observed 20th to 23rd day after application
# How it was run: as §1
row,SMILES,Pre-emergence Herbicidal Activity ECHCG (growth controlling degree)
1,COc1c(Cl)cc(F)c(-c2nn(C)c(OC(F)F)c2Cl)c1NC(=O)c1ccc(F)cc1F [Compound 1-30],60%

# System: barnyardgrass (Echinochloa crus-galli L.), ECHCG
# Assay: Test Example 2 post-emergence (foliage treatment) herbicidal activity, ECHCG
# Assay type: in vivo
# Details: 63 g a.i./ha
# How it was run: as §4
row,SMILES,"growth controlling degree, ECHCO"
1,COc1c(Cl)cc(F)c(-c2nn(C)c(OC(F)F)c2Cl)c1NC(=O)c1ccc(F)cc1F [Compound 1-30],100%

# System: crabgrass (Digitaria sanguinalis L.), DIGSA
# Assay: Test Example 2 post-emergence (foliage treatment) herbicidal activity, DIGSA
# Assay type: in vivo
# Details: 63 g a.i./ha
# How it was run: as §4
row,SMILES,"growth controlling degree, DIGSP"
1,COc1c(Cl)cc(F)c(-c2nn(C)c(OC(F)F)c2Cl)c1NC(=O)c1ccc(F)cc1F [Compound 1-30],100%

# System: wheat (Triticum aestivum L.), TRZAX
# Assay: Test Example 2 post-emergence (foliage treatment) herbicidal activity, TRZAX
# Assay type: in vivo
# Details: 63 g a.i./ha
# How it was run: as §2
row,SMILES,"growth controlling degree, TRZAX"
1,COc1c(Cl)cc(F)c(-c2nn(C)c(OC(F)F)c2Cl)c1NC(=O)c1ccc(F)cc1F [Compound 1-30],50%

# System: rice (Oryza sativa L.: ORYSA)
# Assay: Test Example 3 water application herbicidal activity (paddy), transplanted rice ORYSA
# Assay type: in vivo
# Details: 63 g a.i./ha, water application 4th day after transplantation of 2 leaf stage rice, visually observed 21st day after application; 0 = untreated control, 100 = complete kill
# How it was run: as §3
row,SMILES,growth controlling degrees (%) ORYSA
1,COc1c(Cl)cc(F)c(-c2nn(C)c(OC(F)F)c2Cl)c1NC(=O)c1ccc(F)cc1F [Compound 1-30],60%

# System: rice (Oryza sativa L.): ORYSA
# Assay: Test Example 1 pre-emergence herbicidal activity, ORYSA
# Assay type: in vivo
# Details: Rate 63 g a.i./ha, visually observed 20th to 23rd day after application
# How it was run: as §1
row,SMILES,Pre-emergence Herbicidal Activity ORYSA (growth controlling degree)
1,COc1c(Cl)cc(F)c(-c2nn(C)c(OC(F)F)c2Cl)c1NC(=O)c1ccc(F)cc1F [Compound 1-30],10%

# System: prickly sida (Sida spinosa L.): SEDSP
# Assay: Test Example 1 pre-emergence herbicidal activity, SIDSP
# Assay type: in vivo
# Details: Rate 63 g a.i./ha, visually observed 20th to 23rd day after application
# How it was run: as §1
row,SMILES,Pre-emergence Herbicidal Activity SIDSP (growth controlling degree)
1,COc1c(Cl)cc(F)c(-c2nn(C)c(OC(F)F)c2Cl)c1NC(=O)c1ccc(F)cc1F [Compound 1-30],100%

# System: japanese ribbon wapato (Sagittaria pygmaea: SA GPY)
# Assay: Test Example 3 water application herbicidal activity (paddy), SAGPY
# Assay type: in vivo
# Details: 63 g a.i./ha, water application under submerged condition, tubers planted, visually observed 14th day after application; 0 = untreated control, 100 = complete kill
# How it was run: as §3
row,SMILES,growth controlling degrees (%) SAGPY
1,COc1c(Cl)cc(F)c(-c2nn(C)c(OC(F)F)c2Cl)c1NC(=O)c1ccc(F)cc1F [Compound 1-30],100%

# System: soybean (Glycine max Merr.), GLXMA
# Assay: Test Example 2 post-emergence (foliage treatment) herbicidal activity, GLXMA
# Assay type: in vivo
# Details: 63 g a.i./ha
# How it was run: as §2
row,SMILES,"growth controlling degree, GLXMA"
1,COc1c(Cl)cc(F)c(-c2nn(C)c(OC(F)F)c2Cl)c1NC(=O)c1ccc(F)cc1F [Compound 1-30],95%

# System: redroot pigweed (Amaranthus retroflexus L.), AMARE
# Assay: Test Example 2 post-emergence (foliage treatment) herbicidal activity, AMARE
# Assay type: in vivo
# Details: 63 g a.i./ha
# How it was run: as §4
row,SMILES,"growth controlling degree, AMARE"
1,COc1c(Cl)cc(F)c(-c2nn(C)c(OC(F)F)c2Cl)c1NC(=O)c1ccc(F)cc1F [Compound 1-30],100%

# System: green foxtail (Setaria viridis L.), SETVI
# Assay: Test Example 2 post-emergence (foliage treatment) herbicidal activity, SETVI
# Assay type: in vivo
# Details: 63 g a.i./ha
# How it was run: as §2
row,SMILES,"growth controlling degree, SETVI"
1,COc1c(Cl)cc(F)c(-c2nn(C)c(OC(F)F)c2Cl)c1NC(=O)c1ccc(F)cc1F [Compound 1-30],100%

# System: corn (Zea mays L.): ZEAMX
# Assay: Test Example 1 pre-emergence herbicidal activity, ZEAMX
# Assay type: in vivo
# Details: Rate 63 g a.i./ha, visually observed 20th to 23rd day after application
# How it was run: as §1
row,SMILES,Pre-emergence Herbicidal Activity ZEAMX (growth controlling degree)
1,COc1c(Cl)cc(F)c(-c2nn(C)c(OC(F)F)c2Cl)c1NC(=O)c1ccc(F)cc1F [Compound 1-30],10%
